Drawing on BindingDB's records for patent US20250282741 (Innovo Therapeutics, 2025), this text covers EC50 for three compounds.

In this experiment the target is T1, Serpin H1 (Human, UniProt P50454).
T1 sequence (P50454 whole entry): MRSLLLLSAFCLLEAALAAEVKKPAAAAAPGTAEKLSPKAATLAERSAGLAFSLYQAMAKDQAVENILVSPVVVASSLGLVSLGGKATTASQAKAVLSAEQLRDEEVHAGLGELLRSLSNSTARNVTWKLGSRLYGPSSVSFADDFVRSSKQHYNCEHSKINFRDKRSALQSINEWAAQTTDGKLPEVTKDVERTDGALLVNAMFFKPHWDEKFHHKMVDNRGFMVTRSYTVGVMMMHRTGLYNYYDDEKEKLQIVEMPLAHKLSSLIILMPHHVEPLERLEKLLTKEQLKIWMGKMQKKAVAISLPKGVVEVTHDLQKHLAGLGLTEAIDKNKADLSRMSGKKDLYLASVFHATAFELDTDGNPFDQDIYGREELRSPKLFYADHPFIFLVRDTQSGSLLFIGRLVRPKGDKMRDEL
The experiment in a line: Inhibition of HSP47 Function. On the procedure: Fibrils were formed by adding 180 ul of phosphate-buffered saline (PBS, pH 7.4) solution to 20 ul of collagen dissolved in acidic solution (collagen solution, UK), which was measured at a wavelength of 340 nm. HSP47 (GenScript US) was added at a concentration of 9.45 μg/ml to assess HSP47 activity as the degree to which it inhibits fibril formation. Test compound was added with concentrations of 100 μM to 1 μM and the inhibitory activity of HSP47 was calculated as a percentage or EC50.
In the case of `CCc1oc2cc(Cl)ccc2c1C(=O)c1cc(Br)c(O)c(Br)c1` [US20250282741, Example 12], it took 73.1 µM to reach a half-maximal effect (EC50). The figure for `CCc1oc2c(Cl)cccc2c1C(=O)c1cc(I)c(O)c(I)c1` [US20250282741, Example 14] is 15.9 µM.

Consider `CCc1oc2cc(C(F)(F)F)ccc2c1C(=O)c1cc(Br)c(O)c(Br)c1` [US20250282741, Example 22], for which the EC50 turned out to be 32.1 µM.

As usually defined, the EC50 is the midpoint of the concentration-response curve. Low readings indicate greater potency, high ones weaker potency.
